Measurements as given in patent US5629298A, “Adenosine as a positive inotrop in the compromised heart” (University of Massachusetts Medical Center, priority 1995, dated 1997).
Read-outs that look alike come from different tables or passages of the source.

System: rat ventricular myocytes
Assay: Contractile function of individual ventricular myocytes (line scan camera edge detection, paced at 0.5 Hz)
Assay type: cell-based
Conditions: for inhibition at 0.2 µM / activation at 0.2 µM: ISO at 0.2 μM; for +dL/dtmax, maximal rate of shortening / -dL/dtmax, maximal rate of relaxation / DS, duration of shortening / LC, maximum length change (shortening) with contraction / TPS, time-to-peak shortening / TR, time to 75% relaxation: mean ± SE
Method: Primary cultures of adult rat ventricular myocytes were prepared essentially according to previously described methods (Romano et al., Am. J. Physiol. 257:H1088 (1989)). Two male Sprague-Dawley rats (Charles River, Wilmington, Mass. or Harlan, Indianapolis, Ind.) were decapitated, and the hearts were rapidly excised and constant pressure (70 cm H2) and nonrecirculated) perfused for 10 minutes through the aortas with filtered (0.45 μm membrane filter) perfusing solution (NaCl, 118 mM; glucose, 10 mM; NaHCO3 25 mM; KCl, 4.69 mM; MgSO4 1.18 mM; and KH2 PO4, 1.18 mM; (pH 7.4)), to which […] was added, at 37° C. After equilibration, the hearts were constant pressure perfused with fresh physiological saline ("PS") containing no added Ca^2+ until spontaneous contractions ceased (i.e., ~30 seconds). The hearts were then perfused for 4-10 minutes in a nonrecirculating manner with PS containing 0.73 mg/ml collagenase, 0.16 mg/ml hyaluronidase, 1 mg/ml recrystallized bovine serum albumin ("BSA") and 48.4 μM Ca^2+ at a rate of 3-4 ml/min/heart. Ventricles, free of atria, were removed from the perfusion system, cut into 8 pieces and placed in a 50 ml Erlenmeyer flask with 5 ml of PS containing 0.73 mg/ml collagenase, 0.16 mg/ml hyaluronidase, 2.5 mg/ml BSA, and 50 μM Ca^2+ (incubation solution). The flask was gently shaken (40 cycles/min) in a reciprocating water bath with continuous gassing (95% O2, 5% CO2) for 7 minutes at 37° C. The incubation solution was aspirated and this shaking procedure was repeated with fresh incubation solution 3-5 times depending on the likelihood that the tissue was ready to dissociate. After the final incubation period, the solution was aspirated and replaced with 10 ml of fresh incubation solution. The flask was then shaken rapidly (120 cycles/min) for 10 minutes with gassing to dissociate the myocytes. The flask contents were filtered through a 250 μm nylon mesh into a 50 ml polypropylene centrifuge tube, to which 40 ml of PS containing 5.95 mg/ml BSA and 99.7 μm Ca^2+ (wash solution) was gradually added.
The myocytes were allowed to settle for 15 minutes, and the upper two thirds of the wash solution was aspirated. Upon the addition of 30-35 ml of wash solution, this settling step was repeated. The wash solution was aspirated and the myocyte pellet was resuspended in 10 ml of minimum essential medium ("MEM"). The myocyte suspension was allowed to settle for 5 minutes and then brought to a final volume of 22 ml with MEM. Two milliliters of the myocyte suspension was seeded onto each of 60 mm culture dishes containing 2 ml of MEM.
The contractile function of individual myocytes was assessed by dispersing 50-100 cells in a 506 μl myocyte chamber (11×23×2 mm deep). The chamber (FIG. 1) was continuously suffused (850 μl/min) with fresh suffusion solution ("SS") in mM: 136.4 NaCl, 4.7 KCl, 1.0 CaCl2, 10 hydroxyethylpiperzine-ethanesulfonicacid (HEPES), 1.0 NaHCO3, 1.2 MgSO4, 1.2 KH2 PO4, 10 glucose, 0.6 ascorbate, 1.0 pyruvate) at 20° C. The chamber was mounted on an inverted microscope stage and contained platinum wire electrodes for initiating myocyte contraction at 0.5 Hz (voltage 10% above threshold for 5 msec duration).
The image of the myocyte was projected via an inverted microscope at 300× onto a line scan camera (Fairchild, Model 1600R) containing a linear array (1×3456) of photodiodes. When aligned with the longitudinal axis of the cell the camera detected the movement of the 2 ends of the myocyte upon contraction (shortening and relengthening). […] When the myocyte was transilluminated, both ends of the cell were easily discriminated. Myocyte length and length change with respect to time for a single contraction was measured by determining the pixels in which the appropriate transitions between light and dark occurred. The line scan camera was calibrated with a stage micrometer scaled in 10 μm divisions. The signals from the camera were directed to a Hewlett Packard computer (Model Vectra RS/20C). […]

[1] = ISO at 0.1 μM in the presence of 1 μM PIA
[2] = Rattus norvegicus, Ventricular myocyte, read-out: increase in +dL/dtmax
[3] = Rattus norvegicus, Ventricular myocyte, read-out: increase in LC
[4] = Table 2, 0.2 μM ISO, 2 μM PIA, 0.2 μM DPCPX added sequentially every 8-10 min, maximum responses, N = 6
[5] = 100 μM adenosine administered together with 0.2 μM DPCPX
[6] = Table 6, 10^-5 M SHA-082, 10^-5 M NECA, 10^-4 M adenosine, 2 × 10^-7 M DPCPX, 10^-5 M CGS-15943, N = 6
[7] = Rattus norvegicus, Ventricular myocyte, read-out: increase in TPS
[8] = Rattus norvegicus, Ventricular myocyte, read-out: increase in TR
[9] = Table 4, CGS-21680 10^-4 M, cumulative dose-response, every 10 min, N = 6
[10] = Table 4, CGS-21680 10^-5 M, cumulative dose-response, every 10 min, N = 6
[11] = Table 4, CGS-21680 10^-6 M, cumulative dose-response, every 10 min, N = 9
[12] = Table 4, CGS-21680 10^-7 M, cumulative dose-response, every 10 min, N = 9
[13] = Table 4, CGS-21680 10^-8 M, cumulative dose-response, every 10 min, N = 8
[14] = Table 5, CGS-21680 and/or CGS-15943 at 10^-5 M, 10 min, N = 6

SMILES: CC(C)NCC(O)c1ccc(O)c(O)c1 (stereo not shown) [ISO, isoproterenol]
- decrease in TR [1]: 10%
- increase in +dL/dtmax [1]: 70%
- increase in -dL/dtmax [1]: 93%
- increase in LC [1]: 44%
- inhibition at 0.2 µM (Rattus norvegicus, Ventricular myocyte, read-out: decrease in DS): 30%
- inhibition at 0.2 µM (Rattus norvegicus, Ventricular myocyte, read-out: decrease in TPS): 14%
- inhibition at 0.2 µM (Rattus norvegicus, Ventricular myocyte, read-out: decrease in TR): 39%
- activation at 0.2 µM [2]: 63%
- activation at 0.2 µM (Rattus norvegicus, Ventricular myocyte, read-out: increase in -dL/dtmax): 100%
- activation at 0.2 µM [3]: 61%
- +dL/dtmax, maximal rate of shortening [4]: 260 ± 13 μm/msec
- -dL/dtmax, maximal rate of relaxation [4]: 180 ± 17 μm/msec
- DS, duration of shortening [4]: 263 ± 16 ms
- LC, maximum length change (shortening) with contraction [4]: 29 ± 2 μm
- TPS, time-to-peak shortening [4]: 103 ± 4 ms
- TR, time to 75% relaxation [4]: 210 ± 8 ms

SMILES: Nc1ncnc2c1ncn2[C@@H]1O[C@H](CO)[C@@H](O)[C@H]1O [adenosine]
- increase in +dL/dtmax [5]: 29%
- increase in DS [5]: 20%
- increase in LC [5]: 35%
- increase in TPS [5]: 27%
- increase in TR [5]: 37%
- effect on myocyte contractility when administered alone (100 μM adenosine or 0.2 μM DPCPX): without effect
- +dL/dtmax, maximal rate of shortening [6]: 180 ± 10 μm/msec
- -dL/dtmax, maximal rate of relaxation [6]: 151 ± 10 μm/msec
- DS, duration of shortening [6]: 293 ± 16 ms
- LC, maximum length change (shortening) with contraction [6]: 16 ± 1 μm
- TPS, time-to-peak shortening [6]: 120 ± 4 ms
- TR, time to 75% relaxation [6]: 281 ± 12 ms

SMILES: CCNC(=O)[C@H]1O[C@@H](n2cnc3c(N)nc(NCCc4ccc(CCC(=O)O)cc4)nc32)[C@H](O)[C@@H]1O [CGS-21680, 2-p-(2-carboxy-ethyl)phenethyl-amino-5'-N-ethylcarboxamido-adenosine]
- effect on -dL/dtmax (CGS-21680, Table 4 concentrations): did not affect
- contractility variables compared to 1 μM CGS-21680 in the absence of DPCPX (CGS-21680 at 1 μM in the presence of 0.2 μM DPCPX): no further increases
- EC50 (Rattus norvegicus, Ventricular myocyte, read-out: EC50 for +dL/dtmax): 13.2 ± 5.6 nM
- EC50 (Rattus norvegicus, Ventricular myocyte, read-out: EC50 for DS): 26 ± 5.4 nM
- EC50 (Rattus norvegicus, Ventricular myocyte, read-out: EC50 for LC): 6.1 ± 2 nM
- EC50 (Rattus norvegicus, Ventricular myocyte, read-out: EC50 for TPS): 48.2 ± 6.7 nM
- EC50 (Rattus norvegicus, Ventricular myocyte, read-out: EC50 for TR): 28.9 ± 8.7 nM
- activation at 0.1 µM [2]: 27%
- activation at 0.1 µM (Rattus norvegicus, Ventricular myocyte, read-out: increase in DS): 32%
- activation at 0.1 µM [3]: 28%
- activation at 0.01 µM [7]: 11%
- activation at 0.1 µM [7]: 30%
- activation at 0.01 µM [8]: 12%
- activation at 0.1 µM [8]: 22%
- +dL/dtmax, maximal rate of shortening [9]: 158 ± 14 μm/msec
- -dL/dtmax, maximal rate of relaxation [9]: 108 ± 16 μm/msec
- DS, duration of shortening [9]: 404 ± 17 ms
- LC, maximum length change (shortening) with contraction [9]: 22 ± 2 μm
- TPS, time-to-peak shortening [9]: 156 ± 3 ms
- TR, time to 75% relaxation [9]: 322 ± 12 ms
- +dL/dtmax, maximal rate of shortening [10]: 187 ± 13 μm/msec
- -dL/dtmax, maximal rate of relaxation [10]: 127 ± 13 μm/msec
- DS, duration of shortening [10]: 460 ± 18 ms
- LC, maximum length change (shortening) with contraction [10]: 26 ± 3 μm
- TPS, time-to-peak shortening [10]: 192 ± 4 ms
- TR, time to 75% relaxation [10]: 397 ± 14 ms
- +dL/dtmax, maximal rate of shortening [11]: 188 ± 11 μm/msec
- -dL/dtmax, maximal rate of relaxation [11]: 121 ± 15 μm/msec
- DS, duration of shortening [11]: 458 ± 12 ms
- LC, maximum length change (shortening) with contraction [11]: 24 ± 2 μm
- TPS, time-to-peak shortening [11]: 183 ± 5 ms
- TR, time to 75% relaxation [11]: 390 ± 13 ms
- +dL/dtmax, maximal rate of shortening [12]: 183 ± 14 μm/msec
- -dL/dtmax, maximal rate of relaxation [12]: 126 ± 12 μm/msec
- DS, duration of shortening [12]: 431 ± 14 ms
- LC, maximum length change (shortening) with contraction [12]: 23 ± 2 μm
- TPS, time-to-peak shortening [12]: 169 ± 3 ms
- TR, time to 75% relaxation [12]: 361 ± 12 ms
- +dL/dtmax, maximal rate of shortening [13]: 162 ± 13 μm/msec
- -dL/dtmax, maximal rate of relaxation [13]: 125 ± 11 μm/msec
- DS, duration of shortening [13]: 363 ± 15 ms
- LC, maximum length change (shortening) with contraction [13]: 22 ± 2 μm
- TPS, time-to-peak shortening [13]: 144 ± 4 ms
- TR, time to 75% relaxation [13]: 334 ± 10 ms
- +dL/dtmax, maximal rate of shortening [14]: 192 ± 11 μm/msec
- -dL/dtmax, maximal rate of relaxation [14]: 122 ± 12 μm/msec
- DS, duration of shortening [14]: 486 ± 15 ms
- LC, maximum length change (shortening) with contraction [14]: 25 ± 2 μm
- TPS, time-to-peak shortening [14]: 190 ± 4 ms
- TR, time to 75% relaxation [14]: 392 ± 13 ms
- EC50 (read-out: EC50 for the contractile variables (length change, duration of shortening, time to peak shortening, time to 75% relaxation, +dL/dtmax), range over the five variables): 6 to 48 nM
